Consider 10 compounds from US20240116985A1, “STAPLED PEPTIDES AND METHODS THEREOF” (priority 2020, published 2024).

The target in assay [1] is T1, beta-catenin/TCF4 engagement (Homo sapiens, UniProt P35222).
T1 construct: expressed in transfected cells; host or cells: HEK293
T1 sequence (P35222 1-781): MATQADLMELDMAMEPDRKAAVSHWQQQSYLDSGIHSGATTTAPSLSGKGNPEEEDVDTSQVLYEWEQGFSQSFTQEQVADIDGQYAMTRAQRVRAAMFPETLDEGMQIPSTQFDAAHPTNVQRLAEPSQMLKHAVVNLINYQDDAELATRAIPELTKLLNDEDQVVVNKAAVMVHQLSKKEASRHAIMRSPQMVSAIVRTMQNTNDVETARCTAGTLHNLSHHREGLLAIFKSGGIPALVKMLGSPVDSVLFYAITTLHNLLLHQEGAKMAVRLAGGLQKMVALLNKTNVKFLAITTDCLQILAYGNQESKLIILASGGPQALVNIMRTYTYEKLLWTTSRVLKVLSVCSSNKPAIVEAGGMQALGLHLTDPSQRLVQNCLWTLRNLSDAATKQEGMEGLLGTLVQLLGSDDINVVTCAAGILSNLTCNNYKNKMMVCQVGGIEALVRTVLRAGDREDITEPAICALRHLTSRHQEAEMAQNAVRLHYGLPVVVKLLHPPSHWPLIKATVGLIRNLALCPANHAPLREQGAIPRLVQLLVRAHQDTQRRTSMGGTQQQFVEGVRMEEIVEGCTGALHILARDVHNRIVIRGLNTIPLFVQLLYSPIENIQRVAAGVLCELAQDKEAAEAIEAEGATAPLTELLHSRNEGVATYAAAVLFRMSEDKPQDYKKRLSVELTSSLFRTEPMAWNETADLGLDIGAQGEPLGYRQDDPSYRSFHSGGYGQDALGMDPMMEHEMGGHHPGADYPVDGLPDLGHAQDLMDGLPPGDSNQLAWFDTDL
Kind of assay: Nano-BRET target engagement assay (B-cat-Halo & TCF4-Luc in HEK293 cells). The format is cell-based. The note with it: absolute IC50; read-out: NanoBRET Abs IC50.

Assay [2] deals with T2, full-length beta-Catenin (Uniprot ID P35222) (Homo sapiens, UniProt P35222).
T2 construct: 10 nM full-length beta-Catenin (Uniprot ID P35222)
T2 sequence (P35222 1-781): T1 sequence (P35222 1-781)
The assay can be described thus: Fluorescence polarization IC50 (beta-catenin / 5FAM-TCF4 10-53 competition). The format is binding. The note with it: fluorescence polarization; read-out: beta-Catenin FP IC50.

Consider `CC(=O)N1CCC[C@]12CC=CCCCC1(CCCC=CCCCOC(=O)N3CC[C@@](C(=O)N[C@@H](Cc4ccccc4C(F)(F)F)C(=O)N[C@@H](Cc4csc5ccccc45)C(=O)N[C@@H](CO)C(N)=O)(C3)NC(=O)[C@H](CC(C)C)NC(=O)[C@H](Cc3ccccc3)NC(=O)[C@H](C)NC(=O)[C@H](C)NC(=O)[C@H](Cn3cc(CC(=O)O)nn3)NC(=O)[C@H](CC(=O)O)NC1=O)NC(=O)[C@H](CC(C)(C)C)NC(=O)[C@H](CC(=O)O)NC2=O` (stereo partly drawn) [I-2373, Ac-PL3-Asp-Npg-B5-Asp-[CH2CO2H]TriAzDap-Ala-Ala-Phe-Leu-PyrS2-2F3MeF-BztA-Ser-NH2], for which the results for the half-inhibitory concentration (IC50) in assay [1] and in assay [2] were 4000 nM and 5 nM, respectively.
The corresponding values for `CCCc1cn(CCCC[C@H](NC(=O)[C@H](Cc2csc3ccccc23)NC(=O)[C@H](Cc2ccsc2)NC(=O)[C@]23CCN(C2)C(=O)OCCCC=CCCCC2(CCCC=CC[C@]4(CCCN4C(C)=O)C(=O)N[C@@H](CC(=O)O)C(=O)N[C@@H](CC(C)(C)C)C(=O)N2)C(=O)N[C@@H](CC(=O)O)C(=O)N[C@@H](CC(=O)O)C(=O)N[C@@H](C)C(=O)N[C@@H](C)C(=O)N[C@@H](Cc2ccccc2)C(=O)N[C@@H](CC(C)C)C(=O)N3)C(N)=O)nn1` (stereo partly drawn) [I-2375, Ac-PL3-Asp-Npg-B5-Asp-Asp-Ala-Ala-Phe-Leu-PyrS2-3Thi-BztA-[3C]TriAzLys-NH2] are 13500 nM and 5 nM.
Regarding `CC(=O)N1CCC[C@]12CC=CCCCC1(CCCC=CCCCOC(=O)N3CC[C@@](C(=O)N[C@@H](Cc4ccccc4C(F)(F)F)C(=O)N[C@@H](Cc4csc5ccccc45)C(=O)N[C@@H](CCC(N)=O)C(=O)N[C@@H](CC(C)C)C(=O)N[C@H](C(N)=O)C(C)C)(C3)NC(=O)[C@H](CC(C)C)NC(=O)[C@H](Cc3ccccc3)NC(=O)[C@H](C)NC(=O)[C@H](C)NC(=O)[C@H](Cc3cccc(C(=O)O)c3)NC(=O)[C@H](CC(=O)O)NC1=O)NC(=O)[C@H](CC(C)(C)C)NC(=O)[C@H](CC(=O)O)NC2=O` (stereo partly drawn) [I-2379, Ac-PL3-Asp-Npg-B5-Asp-3COOHF-Ala-Ala-Phe-Leu-PyrS2-2F3MeF-BztA-Gln-Leu-Val-NH2], the IC50 came to 5000 nM in assay [1] and 246 nM in assay [2].
For the compound `CC(=O)N1CCC[C@]12CC=CCCCC1(CCCC=CCCCOC(=O)N3CC[C@@](C(=O)N[C@@H](Cc4ccccc4C(F)(F)F)C(=O)N[C@@H](Cc4csc5ccccc45)C(=O)N[C@@H](CCC(N)=O)C(=O)N[C@@H](CC(C)C)C(=O)NC4(C(N)=O)CCCC4)(C3)NC(=O)[C@H](CC(C)C)NC(=O)[C@H](Cc3ccccc3)NC(=O)[C@H](C)NC(=O)[C@H](C)NC(=O)[C@H](Cc3cccc(C(=O)O)c3)NC(=O)[C@H](CC(=O)O)NC1=O)NC(=O)[C@H](CC(C)(C)C)NC(=O)[C@H](CC(=O)O)NC2=O` (stereo partly drawn) [I-2387, Ac-PL3-Asp-Npg-B5-Asp-3COOHF-Ala-Ala-Phe-Leu-PyrS2-2F3MeF-BztA-Gln-Leu-CyLeu-NH2], the half-inhibitory concentration (IC50) was 7100 nM in assay [1] and 120 nM in assay [2].
The corresponding values for `CC(=O)N1CCC[C@]12CC=CCCCC1(CCCC=CCCCOC(=O)N3CC[C@@](C(=O)N[C@@H](Cc4ccccc4C(F)(F)F)C(=O)N[C@@H](Cc4csc5ccccc45)C(=O)N[C@@H](CCC(N)=O)C(=O)N[C@@H](CC(C)C)C(=O)N[C@@H](Cc4ccc(O)cc4)C(N)=O)(C3)NC(=O)[C@H](CC(C)C)NC(=O)[C@H](Cc3ccccc3)NC(=O)[C@H](C)NC(=O)[C@H](C)NC(=O)[C@H](Cc3cccc(C(=O)O)c3)NC(=O)[C@H](CC(=O)O)NC1=O)NC(=O)[C@H](CC(C)(C)C)NC(=O)[C@H](CC(=O)O)NC2=O` (stereo partly drawn) [I-2392, Ac-PL3-Asp-Npg-B5-Asp-3COOHF-Ala-Ala-Phe-Leu-PyrS2-2F3MeF-BztA-Gln-Leu-Tyr-NH2] are 8600 nM and 461 nM.
The corresponding values for `CC(=O)N1CCC[C@]12CC=CCCCC1(CCCC=CCCCOC(=O)N3CC[C@@](C(=O)N[C@@H](Cc4ccccc4C(F)(F)F)C(=O)N[C@@H](Cc4csc5ccccc45)C(=O)N[C@@H](CCC(N)=O)C(=O)N[C@@H](CC(C)C)C(=O)N[C@H](CC(C)C)C(N)=O)(C3)NC(=O)[C@H](CC(C)C)NC(=O)[C@H](Cc3ccccc3)NC(=O)[C@H](C)NC(=O)[C@H](C)NC(=O)[C@H](Cc3cccc(C(=O)O)c3)NC(=O)[C@H](CC(=O)O)NC1=O)NC(=O)[C@H](CC(C)(C)C)NC(=O)[C@H](CC(=O)O)NC2=O` (stereo partly drawn) [I-2396, Ac-PL3-Asp-Npg-B5-Asp-3COOHF-Ala-Ala-Phe-Leu-PyrS2-2F3MeF-BztA-Gln-Leu-dLeu-NH2] are 8300 nM and 187 nM.
`CC(=O)N1CCC[C@]12CC=CCCCC1(CCCC=CCCCOC(=O)N3CC[C@@](C(=O)N[C@@H](Cc4ccccc4C(F)(F)F)C(=O)N[C@@H](Cc4csc5ccccc45)C(=O)N[C@@H](CCC(N)=O)C(=O)N[C@@H](CC(C)C)C(=O)N[C@@H](C(N)=O)[C@H](C)O)(C3)NC(=O)[C@H](CC(C)C)NC(=O)[C@H](Cc3ccccc3)NC(=O)[C@H](C)NC(=O)[C@H](C)NC(=O)[C@H](Cc3cccc(C(=O)O)c3)NC(=O)[C@H](CC(=O)O)NC1=O)NC(=O)[C@H](CC(C)(C)C)NC(=O)[C@H](CC(=O)O)NC2=O` (stereo partly drawn) [I-2397, Ac-PL3-Asp-Npg-B5-Asp-3COOHF-Ala-Ala-Phe-Leu-PyrS2-2F3MeF-BztA-Gln-Leu-dThr-NH2]: the IC50 in assay [1] is 7800 nM; in assay [2], 53 nM.
The corresponding values for `C#CC(=O)N1CCC[C@]12CC=CCCCC1(CCCC=CCCCOC(=O)N3CC[C@@](C(=O)N[C@@H](Cc4ccsc4)C(=O)N[C@@H](Cc4csc5ccccc45)C(=O)N[C@@H](Cc4c[nH]cn4)C(N)=O)(C3)NC(=O)[C@H](CCC(N)=O)NC(=O)[C@H](Cc3ccccc3)NC(=O)[C@H](C)NC(=O)[C@H](C)NC(=O)[C@H](CC(=O)O)NC(=O)[C@H](CC(=O)O)NC1=O)NC(=O)[C@H](CC(C)(C)C)NC(=O)[C@H](CC(=O)O)NC2=O` (stereo partly drawn) [I-2402, PropynOH-PL3-Asp-Npg-B5-Asp-Asp-Ala-Ala-Phe-Gln-PyrS2-3Thi-BztA-His-NH2] are > 20000 nM and 16 nM.
`C#CC(=O)N1CCC[C@]12CC=CCCCC1(CCCC=CCCCOC(=O)N3CC[C@@](C(=O)N[C@@H](Cc4ccccc4Cl)C(=O)N[C@@H](Cc4csc5ccccc45)C(=O)N[C@@H](C)C(N)=O)(C3)NC(=O)[C@H](CC(C)C)NC(=O)[C@H](Cc3ccccc3)NC(=O)[C@H](C)NC(=O)[C@H](C)NC(=O)[C@H](Cc3cccc(C(=O)O)c3)NC(=O)[C@H](CC(=O)O)NC1=O)NC(=O)[C@H](CC(C)(C)C)NC(=O)[C@H](CC(=O)O)NC2=O` (stereo partly drawn) [I-2403, PropynOH-PL3-Asp-Npg-B5-Asp-3COOHF-Ala-Ala-Phe-Leu-PyrS2-2C1F-BztA-Ala-NH2]: the half-inhibitory concentration (IC50) in assay [1] is > 20000 nM; in assay [2] it was 12 nM.
As for `CC(=O)N1CCC[C@]12CC=CCCCC1(CCCC=CCCCOC(=O)N3CC[C@@](C(=O)N[C@@H](Cc4ccsc4)C(=O)N[C@@H](Cc4csc5ccccc45)C(=O)N[C@@H](CCC(N)=O)C(N)=O)(C3)NC(=O)[C@H](CCCNC(=N)N)NC(=O)[C@H](Cc3ccccc3)NC(=O)[C@H](C)NC(=O)C(C)(C)NC(=O)[C@H]([C@@H](C)O)NC(=O)[C@H](CC(N)=O)NC1=O)NC(=O)[C@H](CC(C)(C)C)NC(=O)[C@H](CC(=O)O)NC2=O` (stereo partly drawn) [I-2407, Ac-PL3-Asp-Npg-B5-Asn-Thr-Aib-Ala-Phe-Arg-PyrS2-3Thi-BztA-Gln-NH2], the half-inhibitory concentration (IC50) in assay [1] is > 20000 nM; in assay [2] it was 138 nM.
